Assay results taken from EP0231444A2, “Optically active isomers and racemate of 1-(benztriazol-4-yloxy)-3-[2-(2-methoxyphenoxy)-ethylamino]-2-propanol, process for their preparation as well as their use as medicaments” (BOEHRINGER MANNHEIM GMBH, priority 1985, dated 1987).
Counter-ions that a name gives are not always drawn.

Legend:
[1] = biological target: β₁-Rezeptoren (Rezeptoren des Herzmuskels) (Homo sapiens, UniProt P08588); assay: beta-1 adrenergic receptor blockade (no method described); settings: qualitative statement
β₁-Rezeptoren (Rezeptoren des Herzmuskels), sequence (P08588 whole entry): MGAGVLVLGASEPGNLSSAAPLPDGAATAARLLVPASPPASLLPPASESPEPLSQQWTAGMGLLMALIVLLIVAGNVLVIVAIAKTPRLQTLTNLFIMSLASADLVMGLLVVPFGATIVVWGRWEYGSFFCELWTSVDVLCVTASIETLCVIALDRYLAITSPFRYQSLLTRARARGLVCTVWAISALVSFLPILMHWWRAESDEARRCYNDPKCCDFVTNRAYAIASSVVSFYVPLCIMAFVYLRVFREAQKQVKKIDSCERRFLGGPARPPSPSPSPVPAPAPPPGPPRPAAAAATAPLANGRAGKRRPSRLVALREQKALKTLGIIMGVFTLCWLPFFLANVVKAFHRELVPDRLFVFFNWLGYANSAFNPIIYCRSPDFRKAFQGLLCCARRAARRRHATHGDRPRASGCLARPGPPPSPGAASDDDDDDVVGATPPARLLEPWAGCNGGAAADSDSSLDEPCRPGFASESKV

[2] = biological target: β₂-Rezeptoren (Rezeptoren der glatten Muskulatur) (Homo sapiens, UniProt P07550); assay: beta-2 adrenergic receptor blockade (no method described); settings: qualitative statement
β₂-Rezeptoren (Rezeptoren der glatten Muskulatur), sequence (P07550 whole entry): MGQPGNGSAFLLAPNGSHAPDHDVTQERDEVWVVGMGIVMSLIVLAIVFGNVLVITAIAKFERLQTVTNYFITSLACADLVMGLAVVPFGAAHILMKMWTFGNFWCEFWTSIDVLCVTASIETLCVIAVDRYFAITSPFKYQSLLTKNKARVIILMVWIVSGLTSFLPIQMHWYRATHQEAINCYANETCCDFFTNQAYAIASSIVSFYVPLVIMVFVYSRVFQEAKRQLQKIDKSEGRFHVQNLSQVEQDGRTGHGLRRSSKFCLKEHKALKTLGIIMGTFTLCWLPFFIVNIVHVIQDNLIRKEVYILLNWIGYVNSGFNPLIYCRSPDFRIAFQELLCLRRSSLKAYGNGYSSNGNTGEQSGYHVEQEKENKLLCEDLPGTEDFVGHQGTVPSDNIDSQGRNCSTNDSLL

[3] = tested on: Augeninnendruck; assay: lowering of intraocular pressure on local application (no method described); format: in vivo; settings: lokale Applikation, qualitative statement
[4] = tested on: Blutgefäße; settings: as described in EP-B 14 951; cited from earlier work
[5] = tested on: Blutgefäße; assay: vasodilating effect (no method described); settings: qualitative statement, enantiomers
[6] = listed as erfindungsgemäße Substanz

Row | SMILES | β₁-blockierende Wirkung [1] | β₂-blockierende Wirkung [2] | augeninnendrucksenkende Wirkung [3] | Selektivität β₁ gegenüber β₂ (cardioselektiv) ([1]; β₁ versus β₂) | β₁-blockierende Wirkung ([1]; listed as Beispiel 8 b) | β₁-blockierende Wirkung [1, 6] | β₂-blockierende Wirkung ([2]; listed as Beispiel 8 b) | β₂-blockierende Wirkung [2, 6] | augeninnendrucksenkende Wirkung [3, 6] | vasodilatierende Eigenschaften [4] | vasodilatierende / blutgefäßerweiternde Wirkung [5]
1 | COc1ccccc1OCCNC[C@@H](O)COc1cccc2[nH]nnc12 (single isomer, unassigned) [R-Enantiomere] | keine β₁-blockierende | keine β₂-blockierende | augendrucksenkenden Wirkung | – | – | – | – | – | – | – | –
2 | COc1ccccc1OCCNCC(O)COc1cccc2[nH]nnc12 (racemic) [racemische Substanz, 1-(Benztriazol-4-yloxy)-3-(2-(2-methoxyphenoxy)-ethylamino)-2-propanol] | – | – | in extrem geringer Konzentration | cardioselektiv | vorwiegend eine β₁-blockierende Wirkung | β₁-blockierende Wirkung besitzt | nicht oder nur wenig beeinflußt | nur sehr geringe β₂-blockierende Wirkung | im gleichen Maße vorhanden ist wie bei üblichen bekannten β-blockierenden Verbindungen | vasodilatierende Eigenschaften | –
3 | COc1ccccc1OCCNC[C@H](O)COc1cccc2[nH]nnc12 (single isomer, unassigned) [S-Enantiomere, S-(-)-1-(Benztriazol-4-yloxy)-3-(2-(2-methoxyphenoxy)-ethyl-amino)-2-propanol-hydrochlorid] | praktisch die gesamte | – | – | – | – | – | – | – | – | – | blutgefäßerweiternde
